Consider 1 compound from article PMC11274643, “Design, Synthesis, Characterization, and Cytotoxicity of New Pyrazolylmethylene-2-thioxoimidazolidin-4-one Derivatives towards Androgen-Sensitive LNCaP Prostate Cancer Cells” (Biomolecules, 2024).

Series [1] relates to AR+LNCaP cells. Put plainly: Cell apoptosis assay (Annexin V-FITC, flow cytometry). It is filed as cell-based, human. The settings on record: IC50 concentration, 1 nM DHT, 24 h. As to the method: Cell apoptosis assay was performed to ensure the efficacy of compounds 3i and 3k against the progression of AR^+LNCaP tumor cell growth in the presence of 1 nM DHT. Untreated AR^+LNCaP and Enzalutamide-treated AR^+LNCaP were used in this assay as negative and positive controls, respectively. AR^+LNCaP cells were precultured in 25 cm^2 flasks. Briefly, 1 nM DHT was then added to the growing cells. […] AR^+LNCaP cells were harvested and fixed with 70% (v/v) ethanol in FBS (Sigma-Aldrich, Germany), then maintained at 4 °C overnight. The cells were resuspended in FBS containing 0.1% (v/v) Triton X-100, 40 µg/mL […], and 0.1 mg/mL RNase then incubated in a dark chamber at 37 °C for 30 min. A flow-cytometer (Becton Dickinson, San Jose, CA, USA) supplemented with an argon ion laser at a wavelength of 488 nm was used to analyze the AR^+LNCaP cell apoptotic stages. Based on the protocol described by Ozgur et al. (2003), analysis of the data was implemented using Multicycle Software (Phoenix Flow Systems, San Diego, CA, USA; http://www.phoenixflow.com/index.html).
The active compounds 3i and 3k were further analyzed to evaluate their antitumor properties against the growth of the AR^+LNCaP prostate cancer cell line. […] Untreated AR^+LNCaP cells and Enzalutamide reference drug were also used as negative and positive controls in this assay, respectively.
On the technique in general: Flow cytometry measures light scatter and fluorescence of single cells or particles in a stream.

Series [2] concerns Wi38 normal human lung fibroblast cell line. Kind of series: MTT in vitro cytotoxicity assay, 24 h incubation. The class given is cell-based. The settings on record: WI-38. The protocol: (§1) The antitumor properties of pyrazolylmethylene-2-thioxoimidazolidin-4-one derivatives (3a–p) against androgen-sensitive (AR^+LNCaP; ATCC CRL-1740, Accession: CVCL_0395) and androgen-insensitive (AR^-PC-3; ATCC CRL-1435, Accession: CVCL_D5ZS) human prostate cancer cell lines in addition to normal human lung fibroblast cell line (Wi38, Accession: CVCL_2759) were evaluated by MTT assay. AR^+LNCaP, AR^-PC-3, and Wi38 cell lines were purchased frozen in liquid nitrogen from Egyptian Company for Production of Vaccines, Sera and Drugs, Cairo, Egypt (VACSERA). Tumor cell lines were stored as monolayer cultures in DMEM supplemented with 10% FBS and 1% penicillin–streptomycin. MTT assay was carried out as described previously in the literature. In brief, AR^+LNCaP, AR^-PC-3, and Wi38 cells were cultured into 96-well plates containing 100 µL of culture medium per each well. […] A control containing only culture medium was also applied. The assay was performed in triplicate. The cells were incubated overnight to grow at 37 °C in 5% CO2. After removing the growth medium, 100 µL of MTT (0.4 mg/mL of PBS) were added. After 24 h of incubation, the supernatant was removed and 100 µL of DMSO (Sigma Aldrich, Germany) were then added to each sample. Absorbance at 550 nm was measured. The formula (Reading of extract/Reading of negative control) × 100 was applied to calculate the viability percentage. The IC50 value of test compounds (3a–p) was also determined using CPE measurements of normal Wi38 cells (normal human lung fibroblast cells). The MTT assay was repeated with the test compounds (3i, 3k, 3o, 3j, 3p, and 3m) using the three cell types which were stimulated by 1 nM DHT after 48 h of incubation. IC50 values were estimated using Graph Pad Prism computer software (International Scientific Community, San Diego, CA, USA) from linear regression analysis of the concentration–response curves plotted for each tested compound [36].
(§2) In vitro cytotoxicity assay was performed to elucidate the antitumor properties of the synthesized derivatives of pyrazolylmethylene-2-thioxoimidazolidin-4-one. […] The cytotoxicity assay was performed using MTT assay as described in the Materials and Methods Section 2.4.1. The test compounds were dissolved in DMSO as stock solutions (<0.5% (v/v)) and stored in the dark at −20 °C. The human prostate cancer cells and normal human lung fibroblast cells were subjected to variable doses of the compounds for 24 h.

The subject of series [3] is AR-PC-3 androgen-insensitive human prostate cancer cell line. Kind of series: MTT in vitro cytotoxicity assay, 24 h incubation. The class given is cell-based. As to the method: as §1, §2
For series [4], the system named is AR+LNCaP androgen-sensitive human prostate cancer cell line. Put plainly: MTT in vitro cytotoxicity assay, 24 h incubation. The class given is cell-based. The protocol: as §1, §2
For series [5], the system named is AR+LNCaP cells. Put plainly: DNA content at cell cycle stages (Propidium Iodide flow cytometry). The class given is cell-based, human. The settings on record: IC50 concentration, 1 nM DHT. As to the method: The amount of DNA contents of AR^+LNCaP cells stimulated with 1 nM DHT and treated with representative test compounds 3i and 3k at the different stages of the cell cycle were quantitatively evaluated as described previously. […] The Ab139418–Propidium Iodide Flow Cytometry Kit for Cell Cycle Analysis (ab139418, Abcam, Cambridge, UK) was employed for this assay following the procedures provided by the supplier.
Firstly, the ab139418-Propidium Iodide Flow Cytometry Kit for Cell Cycle Analysis (Bio vision, Boston, MA, USA) was used to quantify DNA contents at each cell cycle stage as an indicator of the cell cycle growth arrest.

Series [6] relates to active human caspase-3 in AR+LNCaP cells. Kind of series: Detection of active Caspase 3 in AR+LNCaP cell lysates (Invitrogen Elisa kit). The class given is cell-based. Also noted: Caspase 3 Conc. (Average): unit not given here. The protocol:
Untreated AR^+LNCaP and Enzalutamide-treated AR^+LNCaP were used as negative and positive controls, respectively. AR^+LNCaP cells were cultured in 96-well plates at a cell density of 1 × 10^4 cells/well. Cells were then lysed with 50 µL lysis buffer/well supplemented with the Invitrogen Elisa kit for detection of active human caspase-3 (Invitrogen, Camarillo, CA, USA). Plates were frozen at −80 °C for 30 min and then thawed. The lysate was mixed with 2 Z-DEVD-R110 substrate and incubated at room temperature for 30 min. A fluorescence microplate reader (Tecan, Mainz-Kastel, Germany), was used to measure fluorescence via excitation at 496 nm and emission detection at 520 nm. Values were normalized with total protein content. Active caspase 3 accumulation was determined based on standard dilution series of Human Caspase-3 samples provided with the kit. […]

Series [7] deals with Wi38 normal human lung fibroblast cell line. Put plainly: MTT cytotoxicity assay in presence of 1 nM DHT, 48 h incubation. The class given is cell-based. The settings on record: WI-38, read-out: IC50 Wi38. As to the method: as §1
(§3) The assay was performed in the presence of dihydrotestosterone (1 nM DHT) for 48 h of incubation as previously described. DHT is a potent inducer of androgens that enhances prostate cancer disease progression.
(Tetrazolium dyes change colour on reduction, which living cells bring about.)

For series [8], the system named is AR-PC-3 androgen-insensitive human prostate cancer cell line. Described as above. It is filed as cell-based. The protocol:
as §1, §3

For series [9], the system named is AR+LNCaP androgen-sensitive human prostate cancer cell line. The series is described as above. The class given is cell-based. As to the method: as §1, §3

Usually IC50 stands for the concentration that inhibits the measured activity by half. Broadly, the melting point is the temperature, or range, at which the solid turns liquid. `O=C1NC(=S)NC1=Cc1cn(-c2ccc(F)cc2)nc1-c1ccc(C(F)(F)F)cc1` [Compound 3k, 5-((1-(4-Fluorophenyl)-3-(4-(trifluoromethyl)phenyl)-1H-pyrazol-4-yl)methylene)-2-thioxoimidazolidin-4-one]: the melting point was in the range of 210 to 212 °C. In series [1], the “Early Apoptosis (%)” value was determined as 12.11%, the “Late Apoptosis (%)” value is on record as 16.89%, the “Necrotic Cells (%)” value is listed as 6.02% and the “Total Apoptosis (%)” value is listed as 35.02%. In series [2], this compound had an IC50 of 32.81 ± 0.08 µM. Further, the IC50 in series [3] (Homo sapiens, MTT) was determined as 22.5 ± 0.29 µM. Also, in [3] (ratio of IC50 values), the “Selective Index Wi38/PC-3” value is recorded as 1.5. Besides, in [4] (Homo sapiens, MTT), half-maximal inhibition (IC50) required 10.3 ± 0.14 µM. For the same compound, the “Selective Index Wi38/Lncap” value in series [4] (ratio of IC50 values) is reported as 3.2. Also, in [5], the “DNA Content (%) G0–G1” value amounted to 65.21%, the “DNA Content (%) G2/M” value was determined as 19.18% and the “DNA Content (%) S” value came to 15.61%. Also, in [6] (IC50 concentration, 1 nM DHT, AR+LNCaP lysate), the “active Caspase 3 fold change compared to untreated cells” value was determined as 5.4 fold. Besides, in [6] (IC50 concentration, AR+LNCaP), the “induction of active caspase 3 as a percentage of the reference drug Enzalutamide” value is reported as 81.2%. Besides, in series [6] (LNCaP, fold of control, supplement lab report), the “Caspase 3 fld” value was 5.304. Further, in [6] (LNCaP, supplement lab report), the “Caspase 3” value was 407.9 pg/mL. Further, in series [6] (supplement ELISA read-out, average of two wells), the “Caspase 3 Conc. (Average)” value amounted to 407.9. For the same compound, in [7], the CC50 came out at 19.81 ± 0.07 µM. Besides, the concentration for half-maximal inhibition (IC50) in series [8] stood at 13.9 ± 0.18 µM. In [9] (Homo sapiens), the IC50 is 5.22 ± 0.12 µM. Also, the “Selectivity AR-/AR+” value in [9] (IC50 PC-3 / IC50 LNCaP) amounted to 2.7.
